Experimental data published in patent US7186819B2, “Glutamate receptor and utilization thereof” (Ajinomoto Co., Inc., priority 2002, dated 2007).

Experiments:
vagal gastric branch = assay: Vagal gastric branch afferent nerve activity recording after administration to stomach; format: in vivo, rat; details: 150 mM administered to stomach; urethane-anesthetized fasted Wistar rats; FIG. 4
Description: Rats (Wistar strain, males, 8 to 10 weeks age; Nippon Charles Liver) were fasted for 18 hours, laparotomy was conducted under anesthetization with urethane (1 g/kg; i.p.) and vagal gastric branch was exfoliated to an extent of about 5 mm. After vagal bundle was cut, it was placed on a small operation stand (8×6 mm), fat and bonded tissues around that were carefully detached and the terminal fiber at the side of organ was placed on a dipole electrode made of platinum for recording and insulated from the surrounding tissues by a mixture of liquid paraffin-vaseline (1:1). […]
Nerve action potential was amplified to an extent of 10,000-fold by a micropotential amplifier (DAM-80 manufactured by WPI); and after noise was reduced by a Vessel filter (4-pole, High Cut 10 Hz, Low Cut 1 KHz), it was subjected to an A/D conversion (Powerlab 4sp, manufactured by ADI Instruments, Inc.) and incorporated into a computer (sampling rate 3 KHz, iBook). At the same time, an amplified signal was separated by a window discriminator (DSE-435 manufactured by Daiya Medical Co., Ltd.) into a noise component and a nerve signal component together with monitoring by an oscilloscope, integrated for 5 seconds by a spike counter (DSE-335P manufactured by Daiya Medical Co., Ltd.) and recorded in a chart recorder (WT-465G manufactured by Nippon Koden Corporation). […]

mGluRTβa = biological target: T1, mGluRTβa (Rattus norvegicus, UniProt P23385); assay: Two-electrode membrane potential fixation measurement of calcium-dependent chloride current in Xenopus oocytes expressing mGluRTβa; format: cell-based; details: medium containing 50 mM, potential fixed at -70 mV, current disappeared on substituting the medium again, FIG. 6
T1 construct: expressed in transfected cells; host or cells: Xenopus oocytes injected with cRNA transcribed from pCRII-TOPO/mGluRTβ
T1 sequence (P23385 410-1199): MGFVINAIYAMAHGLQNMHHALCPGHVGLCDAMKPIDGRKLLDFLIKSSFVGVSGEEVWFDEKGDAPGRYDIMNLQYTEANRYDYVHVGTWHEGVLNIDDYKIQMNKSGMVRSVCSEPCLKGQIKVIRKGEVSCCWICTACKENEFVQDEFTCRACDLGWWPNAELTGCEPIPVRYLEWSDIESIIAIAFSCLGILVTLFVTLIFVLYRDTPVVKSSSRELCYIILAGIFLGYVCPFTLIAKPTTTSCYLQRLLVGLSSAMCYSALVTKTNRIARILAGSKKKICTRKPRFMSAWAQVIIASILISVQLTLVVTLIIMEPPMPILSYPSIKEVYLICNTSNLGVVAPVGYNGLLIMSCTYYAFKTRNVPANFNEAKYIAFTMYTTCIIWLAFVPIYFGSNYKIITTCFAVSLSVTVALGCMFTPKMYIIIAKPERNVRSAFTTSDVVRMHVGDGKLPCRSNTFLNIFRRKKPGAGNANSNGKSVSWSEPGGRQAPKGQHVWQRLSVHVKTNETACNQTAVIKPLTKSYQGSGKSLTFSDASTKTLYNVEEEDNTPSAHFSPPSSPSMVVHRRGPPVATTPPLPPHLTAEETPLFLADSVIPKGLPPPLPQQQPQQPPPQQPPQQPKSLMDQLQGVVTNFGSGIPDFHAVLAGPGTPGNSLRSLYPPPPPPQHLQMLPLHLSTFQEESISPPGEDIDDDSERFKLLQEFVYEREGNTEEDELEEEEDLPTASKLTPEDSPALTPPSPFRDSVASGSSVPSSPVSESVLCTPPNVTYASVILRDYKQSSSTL
Description: (§1) Oocyte-expressing strain of Xenopus was used for analysis of function of mGluR1 mRNA derived from circumvallate papilla of rats.
(§2) Female Xenopus (purchased from Watanabe Zoshoku) was bred in a fish tank until oocytes were isolated. The Xenopus was anesthetized with tricain methanesulfonate (MS 222, Sigma) dissolved in deionized water in a concentration of 1 g/L followed by buffering with NaHCO3 (500 mg/L). Anatomy was conducted by hand and oocytes in stages V and VI were recovered from ovary and incubated (for 30 minutes to 1 hour) in a 0.2% collagenase S-1 (Nitta Gelatin) until dissociation took place. After treating with collagenase, the oocytes were washed; follicles were removed; selection was conducted under a microscope; and incubation was carried out at 18° C. for one night.
(§3) Since the polymerase remains […] in PCR fragments, PCR-amplified mGluRTβa and mGluRTγa template DNA were inserted into pCRII-TOPO vector (Invitrogen) by a TOPO-TA cloning reaction. pCRII-TOPO/mGluRTγ vector and pCRII-TOPO/mGluRTβ vector were made into straight lines using EcoRV and XbaI, respectively, extracted with a mixture of phenol and chloroform and precipitated with ethanol together with sodium acetate. After a sequence analysis, cRNA was prepared using a transcription kit for Sp6 promoter made by Ambion (mMESSAGE mMACHINE kit) binding to pCRII-TOPO promoter.

mGluRTγa = biological target: T2, mGluRTγa (Rattus norvegicus, UniProt P23385); assay: Two-electrode membrane potential fixation measurement of calcium-dependent chloride current in Xenopus oocytes expressing mGluRTγa; format: cell-based; details: potential fixed at -70 mV
T2 construct: expressed in transfected cells; host or cells: Xenopus oocytes injected with cRNA transcribed from pCRII-TOPO/mGluRTγ
T2 sequence (P23385 410-1199): as above
Description: as §1, §2, §3

[1] = tested on: oocytes into which cRNA was not injected; assay: Two-electrode membrane potential fixation measurement of membrane current in oocytes not injected with cRNA; format: cell-based, Xenopus; details: data not shown
Description: as §2

N[C@@H](CCC(=O)[O-])C(=O)[O-].[Na+].[Na+] [MSG, sodium L-glutamate]
Centripetal activity of vagal gastric branch (vagal gastric branch): accelerated | Membrane current (calcium-dependent chloride current) (mGluRTβa): continuous introvert current was induced | Membrane current (calcium-dependent chloride current) (mGluRTγa): same introvert current was also observed | Membrane current (calcium-dependent chloride current) [1]: not observed
